Data on two compounds can be found in patent publication US8597904B2, “Pharmaceutical compositions for the treatment of conditions responsive to proteasome inhibition” (priority 2007, dated 2013).

In one series the test system is SKOV3 cells. The experiment in a line: Cytox-Glo cytotoxicity assay. The format is cell-based, human. The following applies: SKOV3, 1.0 μM GlbA or 25 μM SylA, 48 hours. The protocol: Determination of potential cytotoxic effects by GlbA and/or […] was carried out by using the Cytox-Glo cytotoxicity assay, which measures “dead cell proteases” from cells that have lost membrane integrity. Briefly, cells were treated with a single concentration of compound for 48 hours in a final volume of 100 μl, after which 50 μl of AAF-Glo luminogenic peptide substrate (alanyl-alanyl-phenylalanyl-aminoluciferin) was added to each well and incubated for 15 min at room temperature. The luminescence was measured by a Dynex MLX luminometer to give a reading of cells with damaged membranes. Next, 50 μl of digitonin was added to each well and the samples incubated for 15 minutes at room temperature. Luminescence was measured a second time to determine total cell number. Controls included cells with vehicle only, media, and media with compound.
SK-N-SH cells were treated with 0.25 μM GlbA or 25 μM SylA and SKOV3 cells were treated with 1.0 μM GlbA or 25 μM SylA. As illustrated in FIGS. 16A and 16B, control cells (treated with DMSO and H2O representing GlbA and SylA controls, respectively) were viable and no cytotoxicity was detected.

For series [1], the system named is poly (ADP-ribose) polymerase (PARP). The experiment in a line: Western blot of PARP cleavage in SK-N-SH cells. The format is cell-based, human. The protocol:
The induction of an apoptotic response in cancer cells by the addition of syringolin A was verified by monitoring the cleavage of poly (ADP-ribose) polymerase (PARP), a common response during apoptosis. SK-N-SH cells were cultured in the presence or absence of 20 μM syringolin A for 0, 24 and 48 hours, and cell lysates were then generated as described in Example 4 and probed for the presence of PARP by Western blotting using rabbit polyclonal anti-PARP (#9542) (diluted 1:1000) and the HRP-linked anti-rabbit secondary antibody described in Example 4. The results were representative of four independent experiments. […] The treatment of cells for 48 hours further increased the levels of cleaved PARP, whereas noncleaved PARP disappeared. In a similar manner, syringolin A induced PARP cleavage in SKOV3 cells, but noncleaved PARP was still detected 48 hours after treatment (FIG. 5B).
The role of glidobactin A (GlbA) in apoptosis and its correlation with autophagy has not previously been examined. Therefore, in a series of experiments, cell lysates of SK-N-SH cells were treated with GlbA in the presence and absence of the autophagy inhibitor 3-methyladenine (3-MA) and probed for poly ADP-ribose polymerase (PARP). The cleavage of PARP produces a smaller 89 kDa fragment which is indicative of late apoptosis.
(In western blotting, separated proteins are transferred to a membrane and probed.)

For series [2], the target named is T1, human erythrocyte 20S proteasomes, trypsin-like activity (Homo sapiens, UniProt Q99436).
T1 construct: which contains human erythrocyte 20S proteasomes; purchased BIOMOL International AK-740; host or cells: human erythrocytes
The series is described as follows: 20S Proteasome Assay Kit, Boc-LRR-AMC substrate. Format: biochemical. The following applies: 37° C., 100 μM Boc-LRR-AMC. The protocol: The eukaryotic 20S proteasome contains three catalytic subunits (β1, β2, and (β5) conferring caspase-like, trypsin-like and chymotrypsin-like proteolytic activities, respectively (Borissenko and Groll. 2007. Chem. Rev. 107:687-717, which is incorporated herein by reference in its entirety). Syringolin A was tested as a proteasome inhibitor using the 20S Proteasome Assay Kit for Drug Discovery AK-740 (BIOMOL® International, Plymouth Meeting, PA, USA), which contains human erythrocyte 20S proteasomes, in a 96-well microtiter plate. The fluorogenic substrates Suc-LLVY-AMC, Boc-LRR-AMC, and Z-LLE-AMC (BIOMOL® International) were used to monitor chymotrypsin-like, trypsin-like, and caspase-like activities, respectively. […] The release of free AMC (7-amino-4-methylcoumarin) at 37° C. was monitored with an MWGt Sirius HT fluorescence microplate reader (BIO-TEK® Instruments) equipped with a 360 nm excitation and a 460 nm emission filter. Proteolytic activities were measured as the increase in relative fluorescence units (RFU) over time (FIG. 7A-C). […] The initial velocities (vi) were determined from the time derivative of these curves and plotted versus the corresponding inhibitor concentration ([I]). […] The rate of covalent inhibition (kassociation), which equals kobs/[I] was calculated over the range of inhibitor concentrations given in parentheses in FIG. 7D. […]

A further series deals with T2, bovine pancreas trypsin (Bos taurus, UniProt P00760).
T2 construct: bovine pancreas trypsin (Pierce); purchased Pierce; host or cells: bovine pancreas
T2 sequence (P00760 24-246): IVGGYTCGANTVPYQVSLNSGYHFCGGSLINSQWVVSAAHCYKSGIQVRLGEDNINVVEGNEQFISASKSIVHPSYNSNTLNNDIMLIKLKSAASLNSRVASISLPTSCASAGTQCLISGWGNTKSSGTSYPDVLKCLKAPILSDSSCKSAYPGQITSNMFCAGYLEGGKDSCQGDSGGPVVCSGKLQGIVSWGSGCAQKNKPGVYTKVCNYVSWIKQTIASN
The experiment in a line: SensoLyte Green Protease Fluorometric Assay, trypsin inhibition. Format: biochemical. The following applies: syringolin A up to 500 μM. The protocol:
To test the specificity of syringolin A inhibition of proteasome activities, bovine pancreas trypsin (Pierce) and Papaya latex papain (Sigma-Aldrich) inhibition assays with syringolin A were performed with the SensoLyte™ Green Protease Fluorometric Assay Kit (AnaSpec., San Jose, Calif., USA) according to the instructions of the manufacturer. Reaction volumes of 100 μl contained an enzyme concentration of 200 ng/ml and various amounts of test inhibitors. Protease activity was monitored at 33° C. in a FluoroCount Microplate Fluorometer (FluoroCount, Packard, Canberra, Australia) using 485 nm excitation and a 550 nm emission filters.

Turning to `CCCCCCC/C=C/C=C/C(=O)N[C@H](C(=O)N[C@H]1C[C@@H](O)CCNC(=O)/C=C/[C@H](C)NC1=O)[C@@H](C)O` [glidobactin A], the cytotoxicity result in the series on SKOV3 cells is listed as “relatively low levels of cytotoxicity”. For the same compound, the PARP cleavage entry in series [1] (Example 15, single agent) is on record as “PARP cleavage was observed”. In series [1] (GlbA with 3-MA), the “GlbA-induced PARP cleavage in presence of 3-MA” value is “slightly reduced this effect”. For the same compound, in series [2], the “inhibition of trypsin-like activity” value is “less sensitive”.
With `CC(C)[C@H](NC(=O)N[C@H](C(=O)N[C@H]1/C=C/CCNC(=O)/C=C/[C@H](C(C)C)NC1=O)C(C)C)C(=O)O` [syringolin A], the cytotoxicity result in the series with SKOV3 cells is given as “relatively low levels of cytotoxicity”. Also, the PARP cleavage entry in series [1] (20 μM, 24 and 48 hours) is reported as “induces apoptosis-associated PARP cleavage”. In series [2], the “inhibition of trypsin-like activity” value is “inhibited”. The trypsin activity entry on bovine pancreas trypsin is on record as “not affected”.
